Results: US11234437B2 (priority 2017, dated 2022)

Legend:
[1] = tested on: Magnaporthe grisea (Pyricularia oryzae); assay: microbe, parasite or virus in culture; format: cell-based; conditions: read-out: control of Magnaporthe grisea
[2] = tested on: Gibberella zeae (Fusarium graminearum); assay: whole plant or invertebrate; format: in vivo; conditions: in Triticum aestivum, read-out: control of Gibberella zeae
[3] = tested on: Monographella nivalis (Microdochium nivale); assay: Monographella nivalis (Microdochium nivale) / liquid culture (foot rot cereals); format: cell-based; conditions: compared to untreated control
Procedure: Monographella nivalis (Microdochium nivale)/Liquid Culture (Foot Rot Cereals)
(§1) Conidia of the fungus from cryogenic storage are directly mixed into nutrient broth (PDB potato dextrose broth). After placing a (DMSO) solution of test compound into a microtiter plate (96-well format), the nutrient broth containing the fungal spores is added. The test plates are incubated at 24° C. and the inhibition of growth is determined photometrically 4-5 days after application.

Gaeumannomyces graminis = Gaeumannomyces graminis / liquid culture (take-all of cereals); format: cell-based; conditions: compared to untreated control
Procedure: as §1, with “Mycelial fragments of” for “Conidia of”, “storage were” for “storage are”

Row | Structure (SMILES) | inhibition of growth at 20 ppm [1] [%] | pest or weed control at 200 ppm [2] [%] | inhibition of growth at 20 ppm [3] [%] | inhibition of growth at 20 ppm (Gaeumannomyces graminis) [%] | melting point [°C]
1 | CC(F)(F)CC(C)(Cc1ccccc1)NC(=O)c1cnc2c(F)cccc2c1 (stereo not drawn) [X.014, N-(1-benzyl-3,3-difluoro-1-methyl-butyl)-8-fluoro-quinoline-3-carboxamide] | ≥ 80 | ≥ 80 | – | – | –
2 | C[C@@](Cc1ccccc1)(CC(F)(F)F)NC(=O)c1cnc2c(F)c(F)ccc2c1 [Compound F-22, N-[(1R)-1-benzyl-3,3,3-trifluoro-1-methyl-propyl]-7,8-difluoro-quinoline-3-carboxamide] | ≥ 80 | ≥ 80 | – | – | –
3 | C=C(C)C[C@](C)(Cc1ccccc1)NC(=O)c1cnc2c(F)cccc2c1 [Compound F-5, N-[(1R)-1-benzyl-1,3-dimethyl-but-3-enyl]-8-fluoro-quinoline-3-carboxamide] | ≥ 80 | ≥ 80 | ≥ 80 | – | –
4 | CC(C)C[C@@](C)(Cc1ccccc1)NC(=O)c1cnc2ccccc2c1 [Compound F-3, N-[(1S)-1-benzyl-1,3-dimethyl-butyl]quinoline-3-carboxamide] | ≥ 80 | – | ≥ 80 | ≥ 80 | –
5 | CC(C)C[C@@](C)(Cc1ccccc1)NC(=O)c1cnc2c(F)cccc2c1 [Compound F-1, N-[(1S)-1-benzyl-1,3-dimethyl-butyl]-8-fluoro-quinoline-3-carboxamide] | ≥ 80 | – | ≥ 80 | ≥ 80 | –
6 | CC(C)CC(C)(Cc1cccc(F)c1)NC(=O)c1cnc2c(F)cccc2c1 (stereo not drawn) [X.011, 8-fluoro-N-[1-[(3-fluorophenyl)methyl]-1,3-dimethyl-butyl]quinoline-3-carboxamide] | ≥ 80 | – | ≥ 80 | ≥ 80 | 45 to 47
7 | C=C(C)CC(C)(Cc1ccccc1)NC(=O)c1cnc2c(F)c(F)ccc2c1 (stereo not drawn) [X.010, N-(1-benzyl-1,3-dimethyl-but-3-enyl)-7,8-difluoro-quinoline-3-carboxamide] | ≥ 80 | ≥ 80 | ≥ 80 | – | 94 to 96
8 | CC(C)(C)CC(C)(Cc1ccccc1)NC(=O)c1cnc2c(F)cccc2c1 (stereo not drawn) [X.016, N-(1-benzyl-1,3,3-trimethyl-butyl)-8-fluoro-quinoline-3-carboxamide] | ≥ 80 | ≥ 80 | ≥ 80 | – | 48 to 50
9 | Cc1cccc2cc(C(=O)NC(C)(Cc3ccccc3)CC(F)(F)F)cnc12 (stereo not drawn) [X.004, N-(1-benzyl-3,3,3-trifluoro-1-methyl-propyl)-8-methyl-quinoline-3-carboxamide] | ≥ 80 | ≥ 80 | ≥ 80 | – | 120 to 123
10 | CC(F)(F)C[C@@](C)(Cc1ccccc1)NC(=O)c1cnc2c(F)cccc2c1 [Compound F-31, N-[(1R)-1-benzyl-3,3-difluoro-1-methyl-butyl]-8-fluoro-quinoline-3-carboxamide] | ≥ 80 | ≥ 80 | ≥ 80 | – | –
11 | Cc1cccc2cc(C(=O)N[C@](C)(Cc3ccccc3)CC(F)(F)F)cnc12 [Compound F-18, N-[(1R)-1-benzyl-3,3,3-trifluoro-1-methyl-propyl]-8-methyl-quinoline-3-carboxamide] | ≥ 80 | – | – | – | –
12 | C=C(C)C[C@@](C)(Cc1ccccc1)NC(=O)c1cnc2c(F)cccc2c1 [Compound F-6, N-[(1S)-1-benzyl-1,3-dimethyl-but-3-enyl]-8-fluoro-quinoline-3-carboxamide] | – | ≥ 80 | ≥ 80 | ≥ 80 | –
13 | CC(Cc1ccccc1)(CC(F)(F)F)NC(=O)c1cnc2c(Cl)cccc2c1 (stereo not drawn) [X.005, N-(1-benzyl-3,3,3-trifluoro-1-methyl-propyl)-8-chloro-quinoline-3-carboxamide] | ≥ 80 | ≥ 80 | ≥ 80 | – | 141 to 144
14 | C=C(C)CC(C)(Cc1ccccc1)NC(=O)c1cnc2c(F)cccc2c1 (stereo not drawn) [X.009, N-(1-benzyl-1,3-dimethyl-but-3-enyl)-8-fluoro-quinoline-3-carboxamide] | ≥ 80 | ≥ 80 | ≥ 80 | ≥ 80 | –
15 | CC(C)(C)C[C@](C)(Cc1ccccc1)NC(=O)c1cnc2c(F)cccc2c1 [Compound F-10, N-[(1R)-1-benzyl-1,3,3-trimethyl-butyl]-8-fluoro-quinoline-3-carboxamide] | – | ≥ 80 | – | ≥ 80 | –
16 | CC(C)(F)C[C@](C)(Cc1ccccc1)NC(=O)c1cnc2c(F)cccc2c1 [Compound F-16, N-[(1S)-1-benzyl-3-fluoro-1,3-dimethyl-butyl]-8-fluoro-quinoline-3-carboxamide] | ≥ 80 | ≥ 80 | ≥ 80 | – | –
17 | CC(C)C[C@](C)(Cc1ccccc1)NC(=O)c1cnc2ccccc2c1 [Compound F-4, N-[(1R)-1-benzyl-1,3-dimethyl-butyl]quinoline-3-carboxamide] | ≥ 80 | – | – | ≥ 80 | –
18 | CC(C)CC(C)(Cc1ccccc1)NC(=O)c1cnc2c(Cl)cccc2c1 (stereo not drawn) [X.018, N-(1-benzyl-1,3-dimethyl-butyl)-8-chloro-quinoline-3-carboxamide] | ≥ 80 | – | ≥ 80 | ≥ 80 | 147 to 148
19 | CC1(CC(C)(Cc2ccccc2)NC(=O)c2cnc3c(F)cccc3c2)CC1 (stereo not drawn) [X.003, N-[1-benzyl-1-methyl-2-(1-methylcyclopropyl)ethyl]-8-fluoro-quinoline-3-carboxamide] | ≥ 80 | ≥ 80 | – | ≥ 80 | 126 to 129
20 | CC(C)C[C@](C)(Cc1ccccc1)NC(=O)c1cnc2c(F)c(F)ccc2c1 [Compound F-14, N-[(1R)-1-benzyl-1,3-dimethyl-butyl]-7,8-difluoro-quinoline-3-carboxamide] | ≥ 80 | – | – | – | –
21 | CC(C)(F)C[C@@](C)(Cc1ccccc1)NC(=O)c1cnc2c(F)cccc2c1 [Compound F-15, N-[(1R)-1-benzyl-3-fluoro-1,3-dimethyl-butyl]-8-fluoro-quinoline-3-carboxamide] | ≥ 80 | ≥ 80 | ≥ 80 | – | –
22 | CC(Cc1ccccc1)(CC(F)(F)F)NC(=O)c1cnc2c(F)cccc2c1 (stereo not drawn) [X.006, N-(1-benzyl-3,3,3-trifluoro-1-methyl-propyl)-8-fluoro-quinoline-3-carboxamide] | ≥ 80 | ≥ 80 | – | ≥ 80 | 158 to 160
23 | C[C@](Cc1ccccc1)(CC(F)(F)F)NC(=O)c1cnc2c(F)cccc2c1 [Compound F-7, N-[(1S)-1-benzyl-3,3,3-trifluoro-1-methyl-propyl]-8-fluoro-quinoline-3-carboxamide] | ≥ 80 | ≥ 80 | – | – | –
24 | C[C@@](Cc1ccccc1)(CC(F)(F)F)NC(=O)c1cnc2c(F)cccc2c1 [Compound F-8, N-[(1R)-1-benzyl-3,3,3-trifluoro-1-methyl-propyl]-8-fluoro-quinoline-3-carboxamide] | ≥ 80 | – | – | – | –
25 | CC(C)(C)C[C@@](C)(Cc1ccccc1)NC(=O)c1cnc2c(F)cccc2c1 [Compound F-9, N-[(1S)-1-benzyl-1,3,3-trimethyl-butyl]-8-fluoro-quinoline-3-carboxamide] | – | ≥ 80 | ≥ 80 | ≥ 80 | –
26 | C=C(C)C[C@](C)(Cc1ccccc1)NC(=O)c1cnc2c(F)c(F)ccc2c1 [Compound F-11, N-[(1R)-1-benzyl-1,3-dimethyl-but-3-enyl]-7,8-difluoro-quinoline-3-carboxamide] | ≥ 80 | ≥ 80 | – | – | –
27 | C=C(C)C[C@@](C)(Cc1ccccc1)NC(=O)c1cnc2c(F)c(F)ccc2c1 [Compound F-12, N-[(1S)-1-benzyl-1,3-dimethyl-but-3-enyl]-7,8-difluoro-quinoline-3-carboxamide] | ≥ 80 | – | ≥ 80 | – | –
28 | CC(C)(F)CC(C)(Cc1ccccc1)NC(=O)c1cnc2c(F)cccc2c1 (stereo not drawn) [X.015, N-(1-benzyl-3-fluoro-1,3-dimethyl-butyl)-8-fluoro-quinoline-3-carboxamide] | ≥ 80 | ≥ 80 | ≥ 80 | – | –
29 | CC(C)C[C@](C)(Cc1ccccc1)NC(=O)c1cnc2c(F)cccc2c1 [Compound F-2, N-[(1R)-1-benzyl-1,3-dimethyl-butyl]-8-fluoro-quinoline-3-carboxamide] | ≥ 80 | – | ≥ 80 | ≥ 80 | –
30 | C[C@@](Cc1ccccc1)(CC(F)(F)F)NC(=O)c1cnc2c(Cl)cccc2c1 [Compound F-20, N-[(1R)-1-benzyl-3,3,3-trifluoro-1-methyl-propyl]-8-chloro-quinoline-3-carboxamide] | ≥ 80 | – | – | – | –
